How the values were obtained:
Hs-578T = experiment: Cytotoxicity against human HS-578T cells assessed as cell viability at 10 uM incubated for 48 hrs by sulforhodamine B assay relative to control; assay type: functional; conditions: read-out: Activity
SF-539 = experiment: Cytotoxicity against human SF-539 cells assessed as cell viability at 10 uM incubated for 48 hrs by sulforhodamine B assay relative to control; assay type: functional; conditions: read-out: Activity
A-375 = experiment: Cytotoxicity against human A-375 cells assessed as reduction in cell viability by MTT assay; assay type: functional, cell-based
EKVX = experiment: Cytotoxicity against human EKVX cells assessed as cell viability at 10 uM incubated for 48 hrs by sulforhodamine B assay relative to control; assay type: functional; conditions: read-out: Activity
HCT-116 = experiment: Cytotoxicity against human HCT-116 cells assessed as cell viability at 10 uM incubated for 48 hrs by sulforhodamine B assay relative to control; assay type: functional; conditions: read-out: Activity
Malme-3M = experiment: Cytotoxicity against human Malme-3M cells assessed as cell viability at 10 uM incubated for 48 hrs by sulforhodamine B assay relative to control; assay type: functional; conditions: read-out: Activity
UACC-62 = experiment: Cytotoxicity against human UACC-62 cells assessed as cell viability at 10 uM incubated for 48 hrs by sulforhodamine B assay relative to control; assay type: functional; conditions: read-out: Activity
NCI-H522 = experiment: Cytotoxicity against human NCI-H522 cells assessed as cell viability at 10 uM incubated for 48 hrs by sulforhodamine B assay relative to control; assay type: functional; conditions: read-out: Activity
SK-MEL-5 = experiment: Cytotoxicity against human SK-MEL-5 cells assessed as cell viability at 10 uM incubated for 48 hrs by sulforhodamine B assay relative to control; assay type: functional; conditions: read-out: Activity
RXF 393 = experiment: Cytotoxicity against human RXF 393 cells assessed as cell viability at 10 uM incubated for 48 hrs by sulforhodamine B assay relative to control; assay type: functional; conditions: read-out: Activity
HCC 2998 = experiment: Cytotoxicity against human HCC 2998 cells assessed as cell viability at 10 uM incubated for 48 hrs by sulforhodamine B assay relative to control; assay type: functional; conditions: read-out: Activity
UACC-257 = experiment: Cytotoxicity against human UACC-257 cells assessed as cell viability at 10 uM incubated for 48 hrs by sulforhodamine B assay relative to control; assay type: functional; conditions: read-out: Activity
SK-MEL-28 = experiment: Cytotoxicity against human SK-MEL-28 cells assessed as reduction in cell viability by MTT assay; assay type: functional, cell-based
UO-31 = experiment: Cytotoxicity against human UO-31 cells assessed as cell viability at 10 uM incubated for 48 hrs by sulforhodamine B assay relative to control; assay type: functional; conditions: read-out: Activity
OVCAR-5 = experiment: Cytotoxicity against human OVCAR-5 cells assessed as cell viability at 10 uM incubated for 48 hrs by sulforhodamine B assay relative to control; assay type: functional; conditions: read-out: Activity
MOLT-4 = experiment: Cytotoxicity against human MOLT-4 cells assessed as cell viability at 10 uM incubated for 48 hrs by sulforhodamine B assay relative to control; assay type: functional; conditions: read-out: Activity
T47D = experiment: Cytotoxicity against human T47D cells assessed as cell viability at 10 uM incubated for 48 hrs by sulforhodamine B assay relative to control; assay type: functional; conditions: read-out: Activity
SW-620 = experiment: Cytotoxicity against human SW-620 cells assessed as cell viability at 10 uM incubated for 48 hrs by sulforhodamine B assay relative to control; assay type: functional; conditions: read-out: Activity
SK-MEL-2 = experiment: Cytotoxicity against human SK-MEL-2 cells assessed as cell viability at 10 uM incubated for 48 hrs by sulforhodamine B assay relative to control; assay type: functional; conditions: read-out: Activity
U-251 = experiment: Cytotoxicity against human U-251 cells assessed as cell viability at 10 uM incubated for 48 hrs by sulforhodamine B assay relative to control; assay type: functional; conditions: read-out: Activity
[1] = target: RAF proto-oncogene serine/threonine-protein kinase (Homo sapiens, UniProt P04049); experiment: Inhibition of human CRAF using MEK1 as substrate by [gamma-33P]-ATP assay
[2] = target: Serine/threonine-protein kinase B-raf (Homo sapiens, UniProt P15056, V600E); experiment: Inhibition of human BRAF V600E mutant using MEK1 as substrate by […] assay
[3] = target: Serine/threonine-protein kinase B-raf (Homo sapiens, UniProt P15056); experiment: Inhibition of human BRAF using MEK1 as substrate by […] assay
Sequence of Serine/threonine-protein kinase B-raf (Homo sapiens, UniProt P15056) (P15056 whole entry): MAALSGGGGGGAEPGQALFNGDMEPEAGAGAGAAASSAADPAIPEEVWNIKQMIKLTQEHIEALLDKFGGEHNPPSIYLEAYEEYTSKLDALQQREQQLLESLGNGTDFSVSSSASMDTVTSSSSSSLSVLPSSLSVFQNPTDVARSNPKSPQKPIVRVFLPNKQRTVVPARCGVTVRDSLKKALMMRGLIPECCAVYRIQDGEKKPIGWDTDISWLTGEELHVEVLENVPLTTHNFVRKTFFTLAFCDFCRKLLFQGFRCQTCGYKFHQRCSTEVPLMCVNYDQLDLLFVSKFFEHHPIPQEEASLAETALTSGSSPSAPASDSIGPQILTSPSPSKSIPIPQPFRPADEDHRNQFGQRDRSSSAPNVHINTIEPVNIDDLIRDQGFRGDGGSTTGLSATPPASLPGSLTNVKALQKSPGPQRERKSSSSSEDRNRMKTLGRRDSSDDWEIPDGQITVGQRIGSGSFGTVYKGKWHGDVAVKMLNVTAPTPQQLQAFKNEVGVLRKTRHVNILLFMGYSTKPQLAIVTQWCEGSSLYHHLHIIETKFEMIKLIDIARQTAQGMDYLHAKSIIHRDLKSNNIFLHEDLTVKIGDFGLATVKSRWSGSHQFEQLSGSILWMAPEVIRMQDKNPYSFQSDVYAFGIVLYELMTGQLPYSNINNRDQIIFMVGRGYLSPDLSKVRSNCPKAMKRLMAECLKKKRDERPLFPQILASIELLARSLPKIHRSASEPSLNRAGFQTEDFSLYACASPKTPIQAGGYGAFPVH

Sequence of RAF proto-oncogene serine/threonine-protein kinase (P04049 whole entry): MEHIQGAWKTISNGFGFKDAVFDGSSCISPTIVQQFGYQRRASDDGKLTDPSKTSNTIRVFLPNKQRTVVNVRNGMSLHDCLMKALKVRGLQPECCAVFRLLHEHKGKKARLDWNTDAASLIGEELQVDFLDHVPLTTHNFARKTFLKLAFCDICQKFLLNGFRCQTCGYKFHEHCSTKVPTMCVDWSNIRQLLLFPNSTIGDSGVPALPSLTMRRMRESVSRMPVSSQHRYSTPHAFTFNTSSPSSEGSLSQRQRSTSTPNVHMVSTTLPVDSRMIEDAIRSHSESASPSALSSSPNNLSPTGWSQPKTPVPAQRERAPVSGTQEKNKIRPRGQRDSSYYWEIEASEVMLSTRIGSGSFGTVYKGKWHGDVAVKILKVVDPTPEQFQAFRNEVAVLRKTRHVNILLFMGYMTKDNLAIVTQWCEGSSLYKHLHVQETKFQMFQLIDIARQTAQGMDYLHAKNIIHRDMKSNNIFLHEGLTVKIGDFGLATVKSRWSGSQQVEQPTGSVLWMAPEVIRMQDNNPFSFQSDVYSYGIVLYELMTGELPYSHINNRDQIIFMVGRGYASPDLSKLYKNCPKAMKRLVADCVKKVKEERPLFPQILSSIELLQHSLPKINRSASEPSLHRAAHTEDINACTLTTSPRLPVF
Sequence of Serine/threonine-protein kinase B-raf (Homo sapiens, UniProt P15056, V600E) (P15056 2-766 V600E limits assumed): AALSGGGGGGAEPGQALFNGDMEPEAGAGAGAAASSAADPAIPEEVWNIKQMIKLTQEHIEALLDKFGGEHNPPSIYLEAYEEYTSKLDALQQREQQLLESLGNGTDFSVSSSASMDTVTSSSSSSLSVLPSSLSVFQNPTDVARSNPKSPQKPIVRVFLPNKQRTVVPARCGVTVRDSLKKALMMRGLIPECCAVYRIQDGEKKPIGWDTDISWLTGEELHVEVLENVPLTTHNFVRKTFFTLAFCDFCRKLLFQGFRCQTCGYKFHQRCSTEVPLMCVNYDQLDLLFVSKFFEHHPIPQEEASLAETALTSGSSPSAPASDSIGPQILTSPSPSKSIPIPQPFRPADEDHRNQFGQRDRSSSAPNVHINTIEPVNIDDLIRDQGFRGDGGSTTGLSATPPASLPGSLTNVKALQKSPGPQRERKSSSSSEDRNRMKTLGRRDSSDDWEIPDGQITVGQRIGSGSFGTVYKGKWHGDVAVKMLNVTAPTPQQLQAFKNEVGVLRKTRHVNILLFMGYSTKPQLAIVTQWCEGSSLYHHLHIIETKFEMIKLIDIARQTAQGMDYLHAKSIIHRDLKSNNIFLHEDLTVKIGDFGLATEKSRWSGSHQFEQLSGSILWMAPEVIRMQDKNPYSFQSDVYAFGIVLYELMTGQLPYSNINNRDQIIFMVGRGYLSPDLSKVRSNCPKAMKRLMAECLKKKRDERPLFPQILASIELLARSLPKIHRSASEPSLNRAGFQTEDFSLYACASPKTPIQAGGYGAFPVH

For `O=S(=O)(NCCNc1nccc(-c2c(-c3cccc(F)c3)nc3sccn23)n1)c1ccc(Cl)cc1`, the viability at 10 µM (Hs-578T) was 72.5%, the viability at 10 µM (SF-539) was 82.5% and the IC50 (A-375) was 18.6 µM. It also gave a viability at 10 µM (EKVX) of 66.3%, a viability at 10 µM (HCT-116) of 34% and a viability at 10 µM (Malme-3M) of 82.7%. For the same molecule, the viability at 10 µM (UACC-62) was 44.3%, the viability at 10 µM (NCI-H522) was 68.2% and the viability at 10 µM (SK-MEL-5) was 36.5%. For the same molecule, the viability at 10 µM (RXF 393) was 69%, the viability at 10 µM (HCC 2998) was 83.4% and the viability at 10 µM (UACC-257) was 88.7%. It also gave an IC50 (SK-MEL-28) of 18.6 µM, a viability at 10 µM (UO-31) of 23.9% and a viability at 10 µM (OVCAR-5) of 93.3%. The viability at 10 µM (MOLT-4) was 46.8%, the viability at 10 µM (T47D) was 43.2% and the viability at 10 µM (SW-620) was 59.6%. It also gave a viability at 10 µM (SK-MEL-2) of 79.8% and a viability at 10 µM (U-251) of 55.2%.

`O=S(=O)(NCCNc1nccc(-c2c(-c3cccc(F)c3)nc3sccn23)n1)c1ccccc1` gave a viability at 10 µM (Hs-578T) of 55.5%, a viability at 10 µM (SF-539) of 65.5% and an IC50 (A-375) of 11 µM. For the same molecule, the viability at 10 µM (EKVX) was 53.4%, the viability at 10 µM (HCT-116) was 22.7% and the viability at 10 µM (Malme-3M) was 68.5%. For the same molecule, the viability at 10 µM (UACC-62) was 24.9%, the viability at 10 µM (NCI-H522) was 43.7% and the viability at 10 µM (SK-MEL-5) was 19.1%. It also gave a viability at 10 µM (RXF 393) of 64.1%, a viability at 10 µM (HCC 2998) of 66.3% and a viability at 10 µM (UACC-257) of 65.3%. For the same molecule, the IC50 (SK-MEL-28) was 19 µM, the viability at 10 µM (UO-31) was 15.4% and the viability at 10 µM (OVCAR-5) was 79.6%. For the same molecule, the viability at 10 µM (MOLT-4) was 16.6%, the viability at 10 µM (T47D) was 18.8% and the viability at 10 µM (SW-620) was 44.5%. It also gave a viability at 10 µM (SK-MEL-2) of 51.8% and a viability at 10 µM (U-251) of 44%.

Molecule `O=C(NCCNc1nccc(-c2c(-c3cccc(F)c3)nc3sccn23)n1)c1ccc(C(F)(F)F)cc1` has a viability at 10 µM (Hs-578T) of 85.2%, a viability at 10 µM (SF-539) of 95.7% and an IC50 (A-375) of 8.71 µM. The viability at 10 µM (EKVX) was 69.1%, the viability at 10 µM (HCT-116) was 50.6% and the viability at 10 µM (Malme-3M) was 55.7%. The viability at 10 µM (UACC-62) was 26.4%, the viability at 10 µM (NCI-H522) was 65.7% and the viability at 10 µM (SK-MEL-5) was 56.6%. For the same molecule, the viability at 10 µM (RXF 393) was 81.9%, the viability at 10 µM (HCC 2998) was 100% and the viability at 10 µM (UACC-257) was 96.8%. For the same molecule, the IC50 (SK-MEL-28) was 9.26 µM, the viability at 10 µM (UO-31) was 34.5% and the viability at 10 µM (OVCAR-5) was 93.5%. It also gave a viability at 10 µM (MOLT-4) of 50%, a viability at 10 µM (T47D) of 43% and a viability at 10 µM (SW-620) of 79%. The viability at 10 µM (SK-MEL-2) was 69% and the viability at 10 µM (U-251) was 77%.

Work on `O=S(=O)(NCCCNc1nccc(-c2c(-c3cccc(F)c3)nc3sccn23)n1)c1ccc(Cl)cc1` yielded a viability at 10 µM (Hs-578T) of 94.6%, a viability at 10 µM (SF-539) of 99.3% and an IC50 (A-375) of 5.9 µM. It also gave a viability at 10 µM (EKVX) of 75.4%, a viability at 10 µM (HCT-116) of 64% and a viability at 10 µM (Malme-3M) of 107%. For the same molecule, the viability at 10 µM (UACC-62) was 40.4%, the IC50 [1] was 0.034 µM and the viability at 10 µM (NCI-H522) was 57.4%. It also gave an IC50 [2] of 0.0162 µM, a viability at 10 µM (SK-MEL-5) of 40.9% and a viability at 10 µM (RXF 393) of 99.6%. The viability at 10 µM (HCC 2998) was 123%, the viability at 10 µM (UACC-257) was 103% and the IC50 (SK-MEL-28) was 8.45 µM. For the same molecule, the viability at 10 µM (UO-31) was 41.8%, the viability at 10 µM (OVCAR-5) was 125% and the viability at 10 µM (MOLT-4) was 48.3%. It also gave an IC50 [3] of 0.0496 µM, a viability at 10 µM (T47D) of 25.6% and a viability at 10 µM (SW-620) of 104%. It also gave a viability at 10 µM (SK-MEL-2) of 79.9% and a viability at 10 µM (U-251) of 90.2%.

`Cc1ccc(S(=O)(=O)NCCCNc2nccc(-c3c(-c4cccc(F)c4)nc4sccn34)n2)cc1` was tested, and the viability at 10 µM (Hs-578T) was 84.3%, the viability at 10 µM (SF-539) was 95.3% and the IC50 (A-375) was 8.38 µM. It also gave a viability at 10 µM (EKVX) of 78.1%, a viability at 10 µM (HCT-116) of 49.6% and a viability at 10 µM (Malme-3M) of 116%. For the same molecule, the viability at 10 µM (UACC-62) was 47.8%, the IC50 [1] was 0.143 µM and the viability at 10 µM (NCI-H522) was 70.8%. The IC50 [2] was 0.089 µM, the viability at 10 µM (SK-MEL-5) was 57.3% and the viability at 10 µM (RXF 393) was 80.3%. The viability at 10 µM (HCC 2998) was 98.2%, the viability at 10 µM (UACC-257) was 121% and the IC50 (SK-MEL-28) was 9.5 µM. The viability at 10 µM (UO-31) was 33.8%, the viability at 10 µM (OVCAR-5) was 111% and the viability at 10 µM (MOLT-4) was 53.5%. For the same molecule, the IC50 [3] was 0.182 µM, the viability at 10 µM (T47D) was 34.5% and the viability at 10 µM (SW-620) was 79.4%. For the same molecule, the viability at 10 µM (SK-MEL-2) was 86.1% and the viability at 10 µM (U-251) was 82.2%.

From ChEMBL document CHEMBL4665642, “Anticancer profile of newly synthesized BRAF inhibitors possess 5-(pyrimidin-4-yl)imidazo[2,1-b]thiazole scaffold” (Bioorg Med Chem, 2019)
